The values that follow come from PubChem BioAssay AID206 (DTP/NCI, 2004).

In the experiment the test system is nude mice, HT29 intrarenal xenograft, tumor weight T/C. The experiment can be described thus: NCI In Vivo Anticancer Drug Screen. Data for tumor model HT29;CX-1 Human Adenocarcinoma (MER+) (intrarenal inoculation) in NU/NU Swiss (nude) mice. The conditions noted are these: endpoint: mean tumor weight change, higher = larger tumour. How it is done: The antitumor activity of compounds was measured in mice bearing transplantable tumors. Survival or tumor size were measured and the results are expressed as the measurement made in the treated group (T) divided by the measurement made in the vehicle treated control group (C). The tumor model used in this assay is HT29;CX-1 Human Adenocarcinoma (MER+) (intrarenal inoculation) in NU/NU Swiss (nude) mice

The mark [1] stands for this setting: dose: 200.0 mg/kg/injection, schedule: Q04DX004 (sc), vehicle: Klucel (hydroxypropylcellulose) (HPC).
Where [2] appears, read: dose: 50.0 mg/kg/injection, schedule: Q04DX004 (sc), vehicle: Klucel (hydroxypropylcellulose) (HPC).
The mark [3] stands for this setting: dose: 100.0 mg/kg/injection, schedule: Q04DX004 (sc), vehicle: Klucel (hydroxypropylcellulose) (HPC).
The mark [4] stands for this setting: dose: 200.0 mg/kg/injection, schedule: Q04DX004 (sc), vehicle: saline with Tween-80.
Where [5] appears, read: dose: 400.0 mg/kg/injection, schedule: Q04DX004 (sc), vehicle: saline with Tween-80.
The mark [6] stands for this setting: dose: 150.0 mg/kg/injection, schedule: Q04DX004 (sc), vehicle: Klucel (hydroxypropylcellulose) (HPC).
[7] abbreviates: dose: 300.0 mg/kg/injection, schedule: Q04DX004 (sc), vehicle: Klucel (hydroxypropylcellulose) (HPC).
[8] abbreviates: dose: 50.0 mg/kg/injection, schedule: Q04DX004 (sc), vehicle: saline with Tween-80.
[9] abbreviates: dose: 100.0 mg/kg/injection, schedule: Q04DX004 (sc), vehicle: saline with Tween-80.

Values joined by “and” are separate entries in the source; they are usually repeats but may differ in a detail not shown here. Equal entries are not always repeated. Results filed as inconclusive are left out.

On to `Cc1ccc(NCC2(/N=C/c3ccccc3)OC(CO)C(O)C2O)cc1` (stereo not given), for which the T/C by setting is: under setting [1], 81 % of control; (dose: 400.0 mg/kg/injection, schedule: Q04DX004 (sc), vehicle: Klucel (hydroxypropylcellulose) (HPC)) 70 % of control; (dose: 800.0 mg/kg/injection, schedule: Q04DX004 (sc), vehicle: Klucel (hydroxypropylcellulose) (HPC)) 92 % of control; (dose: 1600.0 mg/kg/injection, schedule: Q04DX004 (sc), vehicle: Klucel (hydroxypropylcellulose) (HPC)) 94 % of control.

As for `COC1=NCN=C2SC=C(N)N=C12`, the T/C runs as follows: (dose: 37.5 mg/kg/injection, schedule: Q04DX004 (sc), vehicle: saline) 86 % of control; (dose: 75.0 mg/kg/injection, schedule: Q04DX004 (sc), vehicle: saline) 70 % of control; (dose: 150.0 mg/kg/injection, schedule: Q04DX004 (sc), vehicle: saline) 73 % of control.

`CN(C)N=Nc1ccccc1`: the T/C reads like this: (dose: 25.0 mg/kg/injection, schedule: Q04DX004 (sc), vehicle: Klucel (hydroxypropylcellulose) (HPC)) 93 % of control; under setting [2], 62 % of control; under setting [3], 84 % of control.

Consider `CC1(C)OC1CS(=O)c1ccccc1` (stereo not given), for which the T/C under setting [4] was 61 % of control; the T/C under setting [5] was 117 % of control; the T/C (dose: 800.0 mg/kg/injection, schedule: Q04DX004 (sc), vehicle: saline with Tween-80) was 94 % of control.

For `C=Cc1cnc([N+](=O)[O-])n1C`, the T/C by setting is: under setting [6], 110 % of control; under setting [7], 108 % of control.

Consider `Nc1ccccc1N`, for which the T/C by setting is: (dose: 100.0 mg/kg/injection, schedule: Q01DX010 (sc), vehicle: Klucel (hydroxypropylcellulose) (HPC)) 206 % of control; (dose: 200.0 mg/kg/injection, schedule: Q01DX010 (sc), vehicle: Klucel (hydroxypropylcellulose) (HPC)) 115 % of control.

Consider `C=C1C(=O)OC2CC(C)C3C4OC4C(O)C3(C)C(O)C12` (stereo not given), for which the T/C reads like this: under setting [8], 99 % of control; under setting [9], 121 % of control; under setting [4], 107 % of control.

Regarding `COC1=CC(=O)C(OC)=C(OC)C1=O`, the T/C runs as follows: (dose: 38.0 mg/kg/injection, schedule: Q04DX004 (sc), vehicle: saline with Tween-80) 78 % of control; (dose: 75.0 mg/kg/injection, schedule: Q04DX004 (sc), vehicle: saline with Tween-80) 88 % of control; (dose: 150.0 mg/kg/injection, schedule: Q04DX004 (sc), vehicle: saline with Tween-80) 89 % of control.

Consider `CCN(Cc1ccc(Cl)c(Cl)c1)c1ccc2nc(N)nc(N)c2c1C`, for which the T/C runs as follows: (dose: 9.38 mg/kg/injection, schedule: Q04DX004 (sc), vehicle: distilled water + Tween-80) 44 % of control; (dose: 18.75 mg/kg/injection, schedule: Q04DX004 (sc), vehicle: distilled water + Tween-80) 54 % of control; (dose: 37.5 mg/kg/injection, schedule: Q04DX004 (sc), vehicle: distilled water + Tween-80) 93 % of control; (dose: 75.0 mg/kg/injection, schedule: Q04DX004 (sc), vehicle: distilled water + Tween-80) 47 % of control.

In the case of `CC1(c2ccc(Cl)cc2)OC(=O)C(=Cc2ccc([N+](=O)[O-])s2)C(=O)O1` (stereo not given), the T/C was 34 % of control under setting [8], 53 % of control under setting [9], 77 % of control under setting [4] and 60 % of control under setting [5].

With `CC(=O)Oc1ccccc1O`, the T/C is 79 % of control (dose: 75.0 mg/kg/injection, schedule: Q04DX004 (sc), vehicle: saline + Tween-80 + alcohol); 109 % of control (dose: 150.0 mg/kg/injection, schedule: Q04DX004 (sc), vehicle: saline + Tween-80 + alcohol); 119 % of control (dose: 300.0 mg/kg/injection, schedule: Q04DX004 (sc), vehicle: saline + Tween-80 + alcohol).

With `C[PH+](C)C.C[PH+](C)C.[Au]`, the T/C runs as follows: (dose: 2.5 mg/kg/injection, schedule: Q04DX004 (sc), vehicle: saline) 108 % of control; (dose: 20.0 mg/kg/injection, schedule: Q04DX004 (sc), vehicle: saline) 42 % of control and 65 % of control.

Consider `COC(C(=O)C(O)C(C)O)C1Cc2cc3cc(OC4CC(OC(C)=O)C(OC5CC(O)C(OC)C(C)O5)C(C)O4)cc(O)c3c(O)c2C(=O)C1OC1CC(OC2CC(OC3CC(C)(O)C(OC(=O)C(C)C)C(C)O3)C(O)C(C)O2)C(O)C(C)O1` (stereo not given), for which the T/C runs as follows: (dose: 0.5 mg/kg/injection, schedule: Q01DX010 (sc), vehicle: saline with Tween-80) 73 % of control; (dose: 1.0 mg/kg/injection, schedule: Q01DX010 (sc), vehicle: saline with Tween-80) 97 % of control; (dose: 1.0 mg/kg/injection, schedule: Q04DX004 (sc), vehicle: saline with Tween-80) 95 % of control; (dose: 2.0 mg/kg/injection, schedule: Q01DX010 (sc), vehicle: saline with Tween-80) 105 % of control; (dose: 2.0 mg/kg/injection, schedule: Q04DX004 (sc), vehicle: saline with Tween-80) 47 % of control; (dose: 4.0 mg/kg/injection, schedule: Q04DX004 (sc), vehicle: saline with Tween-80) 50 % of control.

Regarding `NC(=O)c1ncn(C2OC(CO)C(O)C2O)c1O` (stereo not given), the T/C by setting is: (dose: 37.5 mg/kg/injection, schedule: Q04DX004 (sc), vehicle: Klucel (hydroxypropylcellulose) (HPC)) 76 % of control; (dose: 75.0 mg/kg/injection, schedule: Q04DX004 (sc), vehicle: Klucel (hydroxypropylcellulose) (HPC)) 77 % of control; under setting [6], 71 % of control; under setting [7], 62 % of control.

For the compound `CCCC(=O)Nc1ncnc2c1ncn2C1OC2COP(=O)(O)OC2C1OC(=O)CCC` (stereo not given), the T/C is, setting by setting: (dose: 100.0 mg/kg/injection, schedule: Q01DX010 (sc), vehicle: saline) 106 % of control; (dose: 200.0 mg/kg/injection, schedule: Q01DX010 (sc), vehicle: saline) 18 % of control; (dose: 400.0 mg/kg/injection, schedule: Q01DX010 (sc), vehicle: saline) 80 % of control; (dose: 800.0 mg/kg/injection, schedule: Q01DX010 (sc), vehicle: saline) 44 % of control.

Take `CSc1cc(C)[o+]c(C)c1`: the T/C runs as follows: under setting [2], 107 % of control; under setting [3], 57 % of control; under setting [1], 41 % of control.

As to `O=C(O)CSc1nc(-c2ccccc2)c(-c2ccccc2)n1-c1ccccn1`, the T/C (dose: 250.0 mg/kg/injection, schedule: Q04DX004 (sc), vehicle: water) was 55 % of control.

As for `S=c1nc[nH]c2nc[nH]c12`, the T/C (dose: 12.5 mg/kg/injection, schedule: Q01DX010 (sc), vehicle: Klucel (hydroxypropylcellulose) (HPC)) was 200 % of control and the T/C (dose: 25.0 mg/kg/injection, schedule: Q01DX010 (sc), vehicle: Klucel (hydroxypropylcellulose) (HPC)) is 81 % of control.

On to `COc1cc(NS(C)(=O)=O)ccc1Nc1c2ccccc2nc2ccccc12`, for which the T/C (dose: 0.38 mg/kg/injection, schedule: Q01DX010 (sc), vehicle: other) is 33 % of control; the T/C (dose: 0.75 mg/kg/injection, schedule: Q01DX010 (sc), vehicle: lactic acid) is 43 % of control; the T/C (dose: 0.75 mg/kg/injection, schedule: Q01DX010 (sc), vehicle: other) was 15 % of control; the T/C (dose: 0.78 mg/kg/injection, schedule: Q01DX010 (sc), vehicle: lactic acid) is 15 % of control; the T/C (dose: 1.5 mg/kg/injection, schedule: Q01DX010 (sc), vehicle: lactic acid) was 30 % of control; the T/C (dose: 1.5 mg/kg/injection, schedule: Q01DX010 (sc), vehicle: other) is 39 % of control. Where the note is “dose: 3.0 mg/kg/injection, schedule: Q01DX010 (sc), vehicle: other”, the T/C is 99 % of control.

As for `C[Si](C)(C)O/C=C1\CCCCC1=O`, the T/C reads like this: under setting [8], 163 % of control; under setting [9], 92 % of control; under setting [4], 123 % of control; under setting [5], 65 % of control.

On to `CCC1(O)CC2CN(CCc3c([nH]c4ccccc34)C(C(=O)OC)(c3cc4c(cc3OC)N(C)C3C(O)(C(N)=O)C(O)C5(CC)C=CCN6CCC43C65)C2)C1` (stereo not given) (tested in a mixture with another compound), for which the T/C reads like this: (dose: 1.5 mg/kg/injection, schedule: Q04DX004 (sc), vehicle: water) 87 % of control; (dose: 12.0 mg/kg/injection, schedule: Q04DX004 (sc), vehicle: water) -25 % of control.

Consider `CC(C)(C)N1CC1CNC(=O)C(=O)NCC1CN1C(C)(C)C` (stereo not given), for which the T/C (dose: 25.0 mg/kg/injection, schedule: Q04DX004 (sc), vehicle: saline with Tween-80) was 109 % of control.
